# Tested on: Diabetic ZDF male rats
# Experiment: In vivo animal model to mimic human night time dosing
# Parameters: species or system rat
# Settings: 30 mg/kg po via gavage in 10% Gelucire 44/14; 360 min after dosing at 14 weeks old, from start of dosing (T=0); p=0.019 versus vehicle controls
# Protocol: Diabetic ZDF male rats (Charles River) were allowed free access to tap water and enriched pelleted chow diet (M-Z Ereich; Art. No. V1185-000; Ssniff R Spezialdiäten GmbH, D-59494, Soest Germany) ad-libitum for 4 weeks until they were 8 weeks old. The animals were housed under a 16 hr/8 hr:dark/light phase (lights on 09:00). As the animals progressed to the diabetic state, weekly blood glucose and insulin measurement were made at the end of the light period (17:00 h) and a blood glucose measurement made at the end of the active (dark) cycle (08:30-09:00 h). When the animals had reached 8 weeks of age, they were trained on a meal paradigm, by removal of food during the light period (09:00-17:00 h), which was maintained for the remainder of the study. After the animals had reached 12 weeks of age, and their diabetic status had been confirmed using the fasted glucose measurements (>8 mM), the animals were divided into groups. […] Blood glucose and insulin concentrations were measured by the glucose oxidase method (Super G Glucose analyzer; Dr. Müller Gerätebau, Freital, Germany) and Elisa technique, respectively, at T=−45 min, before dosing (08:15 h) and then at T=0 min ([…]), T=45 min (09:45 h), T=90 min (10:30 h), T=150 min (11:20 h) and T=360 min (15:00 h) after each weekly successive test compound dose.
compound,measurement,value
"O=C(N[C@@H](Cc1ccc(F)cc1)C(=O)N1CCC(O)CC1)c1cc2cc(Cl)ncc2[nH]1 [Example 3, 5-chloro-1H-pyrrolo[2,3-c]pyridine-2-carboxylic acid [1-(S)-(4-fluorobenzyl)-2-(4-hydroxypiperidin-1-yl)-2-oxoethyl]amide]",reduction in blood glucose concentration (mean+/−S.D.),6.28 ± 2.47 mM

# — patent publication US20090298745A1, “Treatment of Diabetes with Glycogen Phosphorylase Inhibitors” (priority 2004, published 2009)
